The record followed here is patent US11071730B2, “Substituted 6-azabenzimidazole compounds” (Gilead Sciences, Inc., priority 2018, dated 2021).

For orientation: IC50 means the point on the concentration scale where inhibition reaches its midpoint.

The target of this assay is human HPK1 (MAP4K1) (Homo sapiens (Human), UniProt Q92918). The assay can be described thus: HPK1 IC50 Assay (TR-FRET biochemical kinase assay, STK S1 peptide substrate). As to conditions: recombinant human HPK1 kinase domain 0.15 nM, 10 μM ATP, 1 μM STK S1 peptide. The procedure:
The enzymatic activity of human HPK1 (MAP4K1) was monitored in a biochemical assay in the presence or absence of compounds and using a synthetic peptide substrate. An increase in phosphorylation of the peptide by HPK1 was indicative of its kinase activity.
Recombinant HPK1 kinase domain produced via baculovirus infection of insect cells was obtained from Proteros (Proteros Biostructures #PR-0322) and was pre-activated in the presence of 2 mM ATP (Sigma-Aldrich, cat #GE27-2056-01) and 2 mM magnesium chloride for 16 hours at 4° C. The protein reaction mixture was then loaded to a desalting column (Thermo Fisher Scientific, Cat #89889) to remove excess ATP. HPK1 was eluted with buffer containing 20 mM Tris (2-Amino-2-(hydroxymethyl)propane-1,3-diol) pH 8.0, 150 mM NaCl, 2 mM dithiothreitol and 5% glycerol, and was frozen at −80° C. for later use.
Ten nanoliters of test compounds dissolved in DMSO at various concentrations were dispensed into a 384-well ProxiPlate (PerkinElmer #6008289). Five microliters of a solution of recombinant HPK1 diluted in HPK1 kinase assay buffer (50 mM BES [N,N-Bis(2-hydroxyethyl)-2-aminoethanesulfonic acid], pH 7.0; 10 mM magnesium chloride; 0.01% Triton X-100; 1 mM dithiothreitol; 0.01% bovine serum albumin; 0.1 mM sodium orthovanadate) was added to the compound-containing plate and was incubated for 15 minutes at 25° C. Five microliters of a mixture of ATP (Sigma-Aldrich #A6559) and peptide substrate STK S1 (Cisbio #61ST1BLC) diluted in HPK1 kinase assay buffer was then added to start the reaction. Final concentrations were 0.15 nM for HPK1, 10 μM for ATP, and 1 μM for the STK S1 peptide substrate. The reaction mixture was incubated at 25° C. for 3 hours and was stopped with the addition of 10 μl of an EDTA (Ethylenediaminetetraacetic acid)-containing detection buffer (Cisbio #62SDBRDF) supplemented with Europium cryptate-labeled anti-phospho-serine/threonine antibodies (Cisbio #62ST1PEJ) and XL665-labeled streptavidin (Cisbio #610SAXLG). The mixture was incubated for 16 hours at room temperature and peptide phosphorylation was measured by time-resolved fluorescence energy transfer (665 nm/620 nm) on an Envision plate reader (PerkinElmer).
Data in Table 1 were normalized based on positive (staurosporine) and negative (DMSO) controls. Least squares curve fittings were performed using a four-parameter variable slope nonlinear regression model. IC50 is defined as the concentration of compound required to inhibit 50% of maximum phosphorylation. IC50 values from multiple experiments were averaged by geometric mean and the standard deviation was calculated.
(In general: In TR-FRET formats the signal depends on donor and acceptor labels being close together.)

The mark [1] stands for this setting: geometric mean of multiple experiments.

Chain of human HPK1 (MAP4K1) (Q92918 17-274): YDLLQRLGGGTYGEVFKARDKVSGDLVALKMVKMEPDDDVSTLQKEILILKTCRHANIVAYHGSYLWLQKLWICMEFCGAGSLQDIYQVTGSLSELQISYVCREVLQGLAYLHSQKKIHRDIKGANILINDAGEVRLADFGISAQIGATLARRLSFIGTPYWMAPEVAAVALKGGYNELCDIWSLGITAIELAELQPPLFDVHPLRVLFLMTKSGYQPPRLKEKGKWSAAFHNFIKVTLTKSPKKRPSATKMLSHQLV

Regarding `CC(C)n1cnc2cc(-c3ccc4c(c3)N([C@H]3C[C@@H](N5C6CCC5COC6)C3)C(=O)C43CCN(C4COC4)CC3)nc(Nc3ccncc3F)c21` [Example 50], under setting [1], the IC50 turned out to be 500 pM.

As for `CC(=O)N1CCC2(CC1)C(=O)N([C@H]1C[C@@H](N3CC4CCC(C4)C3)C1)c1cc(-c3cc4ncn(C(C)C)c4c(Nc4ccncc4F)n3)ccc12` [Example 181], where the note is “geometric mean”, the 50% inhibitory concentration (IC50) was 100 pM. Take `CC(C)n1cnc2cc(-c3ccc4c(c3)N([C@H]3C[C@@H](N5CCCC6(CC6)C5)C3)C(=O)C43CCN(C(=O)C4(C)COC4)CC3)nc(Nc3ccncc3F)c21` [Example 35]: under setting [1], the IC50 was 200 pM. As to `CCC1(C(=O)N2CCC3(CC2)C(=O)N([C@H]2C[C@@H](N4CCCCC4)C2)c2cc(-c4cc5ncn(C(C)C)c5c(Nc5ccncc5F)n4)ccc23)COC1` [Example 138], for the setting “geometric mean”, the concentration for half-maximal inhibition (IC50) was found to be 200 pM. Take `CC(C)n1cnc2cc(-c3ccc4c(c3)N([C@H]3C[C@@H](N5CCCCC5)C3)C(=O)C43CCN(C4COC4)CC3)nc(Nc3ccnc(F)c3F)c21` [Example 91, 6-(4-((2,3-difluoropyridin-4-yl)amino)-3-isopropyl-3H-imidazo[4,5-c]pyridin-6-yl)-1′-(oxetan-3-yl)-1-((1s,3s)-3-(piperidin-1-yl)cyclobutyl)spiro[indoline-3,4′-piperidin]-2-one]: under setting [1], the IC50 came out at 200 pM. Regarding `CC(C)n1cnc2cc(-c3ccc4c(c3)N([C@H]3C[C@@H](N5CCC(C)(C)C5)C3)C(=O)C43CCN(C(=O)[C@@H]4CCCO4)CC3)nc(Nc3ccncc3F)c21` [Example 13], the IC50 under setting [1] was 200 pM. Consider `CCn1cnc2cc(-c3ccc4c(c3)N([C@H]3C[C@@H](N5CCCCC5)C3)C(=O)C43CCN(C(=O)C(C)(C)C)CC3)nc(Nc3ccncc3F)c21` [Example 169], for which the half-inhibitory concentration (IC50) (geometric mean) stood at 800 pM.

For `CC(C)n1cnc2cc(-c3ccc4c(c3)N([C@H]3C[C@@H](N5CCC(C)(C)C5)C3)C(=O)C43CCN(C(=O)C4CCO4)CC3)nc(Nc3ccncc3F)c21` (mixture of isomers) [Example 78, 1-((1s,3s)-3-(3,3-dimethylpyrrolidin-1-yl)cyclobutyl)-6-(4-((3-fluoropyridin-4-yl)amino)-3-isopropyl-3H-imidazo[4,5-c]pyridin-6-yl)-1′-(oxetane-2-carbonyl)spiro[indoline-3,4′-piperidin]-2-one], the IC50 under setting [1] worked out at 700 pM. Turning to `CC(C)n1cnc2cc(-c3ccc4c(c3)N([C@H]3C[C@@H](N5CCC(C)(C)C5)C3)C(=O)C43CCN(C(=O)C4(C)CCO4)CC3)nc(Nc3ccncc3F)c21` (some centres unmarked) [Example 12], under setting [1], the IC50 is 100 pM. Regarding `CC(C)n1cnc2cc(-c3ccc4c(c3)N([C@H]3C[C@@H](N5CC[C@](C)(F)C5)C3)C(=O)C43CCN(C4COC4)CC3)nc(Nc3ccncc3F)c21` [Example 86], the half-inhibitory concentration (IC50) under setting [1] was 600 pM. Regarding `CC(C)n1cnc2cc(-c3ccc4c(c3)N([C@H]3C[C@@H](N5CCCCC5)C3)C(=O)C43CCN(C(=O)C(C)(C)CO)CC3)nc(Nc3ccnc(F)c3F)c21` [Example 103], the IC50 (geometric mean) amounted to 200 pM.

As for `CC(=O)N1CCC2(CC1)C(=O)N([C@H]1C[C@@H](N3CCCC4(CCC4)C3)C1)c1cc(-c3cc4ncn(C(C)C)c4c(Nc4ccncc4F)n3)ccc12` [Example 182], under “geometric mean”, the half-inhibitory concentration (IC50) came out at 300 pM.

For the molecule `CC(C)n1cnc2cc(-c3ccc4c(c3)N([C@H]3C[C@@H](N5C[C@H]6CC[C@H]6C5)C3)C(=O)C43CCN(C(=O)[C@@H]4CCCO4)CC3)nc(Nc3ccncc3F)c21` [Example 111], under “geometric mean”, the IC50 worked out at 80 pM.

For `CC(C)n1cnc2cc(-c3ccc4c(c3)N([C@H]3C[C@@H](N5CCCCC5)C3)C(=O)C43CCN(C4COC4)CC3)nc(Nc3cc(F)ncc3F)c21` [Example 92], under setting [1], the half-maximal inhibitory concentration (IC50) was 1900 pM. Regarding `CC(C)n1cnc2cc(-c3ccc4c(c3)N([C@H]3C[C@@H](N5CCC(C)(C)C5)C3)C(=O)C43CCN(C(=O)C4CCCOC4)CC3)nc(Nc3ccncc3F)c21` (some centres unmarked) [Example 25], the half-inhibitory concentration (IC50) under setting [1] amounted to 200 pM. On to `CC(C)n1cnc2cc(-c3cnc4c(c3)N([C@H]3C[C@@H](N5CCCCC5)C3)C(=O)C4(C)C)nc(Nc3ccnc(F)c3F)c21` [Example 95], for which, under setting [1], the IC50 is 2500 pM. For the molecule `CC(C)n1cnc2cc(-c3ccc4c(c3)N([C@H]3C[C@@H](N5CCC[C@@H](C)C5)C3)C(=O)C43CCN(C4COC4)CC3)nc(Nc3ccncc3F)c21` [Example 41], under setting [1], the half-maximal inhibitory concentration (IC50) is 600 pM. For the molecule `CC(C)n1cnc2cc(-c3ccc4c(c3)N([C@H]3C[C@@H](N5CC(C)(C)C[C@H]5CO)C3)C(=O)C43CCN(C4COC4)CC3)nc(Nc3ccncc3F)c21` [Example 38], the IC50 under setting [1] turned out to be 1400 pM. On to `CC(C)n1cnc2cc(-c3ccc4c(c3)N([C@H]3C[C@@H](N5CCCCC5)C3)C(=O)C43CCN(C(=O)C4(F)CC4)CC3)nc(Nc3ccncc3F)c21` [Example 150], for which, under “geometric mean”, the IC50 came out at 500 pM. The same measure, in the same setting: in the case of `CO[C@H](C)C(=O)N1CCC2(CC1)C(=O)N([C@H]1C[C@@H](N3CCCCC3)C1)c1cc(-c3cc4ncn(C(C)C)c4c(Nc4ccncc4F)n3)ccc12` [Example 153] it was 300 pM. On to `CCn1cnc2cc(-c3ccc4c(c3)N([C@H]3C[C@@H](N5CCCCC5)C3)C(=O)C43CCN(C4COC4)CC3)nc(Nc3ccncc3F)c21` [Example 175], for which, under “geometric mean”, the IC50 turned out to be 800 pM. The same measure, in the same setting: the value for `CC(C)n1cnc2cc(-c3ccc4c(c3)N([C@H]3C[C@@H](N5CCC(C)(C)C5)C3)C(=O)C43CCN(C(=O)C(C)(C)CO)CC3)nc(Nc3ccc(F)nc3F)c21` [Example 164] was 80 pM; that for `CC(C)n1cnc2cc(-c3ccc4c(c3)N([C@H]3C[C@@H](N5CCCCC5)C3)C(=O)C43CCN(C(=O)C(C)(C)C#N)CC3)nc(Nc3ccncc3F)c21` [Example 141] was 300 pM. Same read-out and setting: the value for `CC(C)n1cnc2cc(-c3ccc4c(c3)N([C@H]3C[C@@H](N5C[C@H]6CC[C@H]6C5)C3)C(=O)C43CCN(C(=O)C4(C)COC4)CC3)nc(Nc3ccncc3F)c21` [Example 110] was 200 pM. On to `CC(=O)N1CCC2(CC1)C(=O)N([C@H]1C[C@@H](N3CCC4CC4C3)C1)c1cc(-c3cc4ncn(C(C)C)c4c(Nc4ccncc4F)n3)ccc12` (some centres unmarked) [Example 183], for which the 50% inhibitory concentration (IC50) (geometric mean) turned out to be 400 pM.

Consider `CC[C@H](C)n1cnc2cc(-c3ccc4c(c3)N([C@H]3C[C@@H](N5CCCCC5)C3)C(=O)C43CCN(C4COC4)CC3)nc(Nc3ccncc3F)c21` [Example 89], for which the half-maximal inhibitory concentration (IC50) under setting [1] was 500 pM. For the molecule `CC(C)n1cnc2cc(-c3ccc4c(c3)N([C@H]3C[C@@H](N5CC6C(C5)C6(C)C)C3)C(=O)C4(C)C)nc(Nc3ccncc3F)c21` (some centres unmarked) [Example 60], the IC50 under setting [1] amounted to 300 pM.

For the molecule `CC(C)n1cnc2cc(-c3ccc4c(c3)N([C@H]3C[C@@H](N5CCCCC5)C3)C(=O)C4(C)C)nc(Nc3ccncc3F)c21` [Example 83], the IC50 under setting [1] is 800 pM. `CC(C)n1cnc2cc(-c3ccc4c(c3)N([C@H]3C[C@@H](N5CCC(C)(C)C5)C3)C(=O)C43CCN(C(=O)[C@H]4CCOC4)CC3)nc(Nc3ccncc3F)c21` [Example 16]: the IC50 under setting [1] was 300 pM.

Consider `CO[C@H]1C[C@@H](C(=O)N2CCC3(CC2)C(=O)N([C@H]2C[C@@H](N4CCCCC4)C2)c2cc(-c4cc5ncn(C(C)C)c5c(Nc5ccncc5F)n4)ccc23)C1` [Example 136, 6-(4-((3-fluoropyridin-4-yl)amino)-3-isopropyl-3H-imidazo[4,5-c]pyridin-6-yl)-1′-((1s,3 S)-3-methoxycyclobutane-1-carbonyl)-1-((1s,3 S)-3-(piperidin-1-yl)cyclobutyl)spiro[indoline-3,4′-piperidin]-2-one], for which the half-maximal inhibitory concentration (IC50) (geometric mean) worked out at 500 pM. In the case of `CC(=O)N1CCC2(CC1)C(=O)N([C@H]1C[C@@H](N3CC4CC4(C)C3)C1)c1cc(-c3cc4ncn(C(C)C)c4c(Nc4ccncc4F)n3)ccc12` (some centres unmarked) [Example 187], the IC50 (geometric mean) stood at 200 pM. Turning to `CC(C)n1cnc2cc(-c3ccc4c(c3)N([C@H]3C[C@@H](N5CCC6(CC6)C5)C3)C(=O)C4(C)C)nc(Nc3ccncc3F)c21` [Example 56], the IC50 under setting [1] amounted to 800 pM. On the same count and under the same terms, in the case of `CC(C)n1cnc2cc(-c3ccc4c(c3)N([C@H]3C[C@@H](N5CCCCC5)C3)C(=O)C43CCN(C(=O)C4(C)CC4)CC3)nc(Nc3ccncc3F)c21` [Example 27] it was 500 pM.

With `CC(C)n1cnc2cc(-c3ccc4c(c3)N([C@H]3C[C@@H](N5CCCCC5)C3)C(=O)C43CCN(C(=O)C4(CO)CC4)CC3)nc(Nc3ccncc3F)c21` [Example 134], where the note is “geometric mean”, the IC50 was found to be 300 pM.

In the case of `CC(C)n1cnc2cc(-c3ccc4c(c3)N([C@H]3C[C@@H](N5CCCCC5)C3)C(=O)C43CCN(C(=O)C4(C)COC4)CC3)nc(Nc3ccncc3F)c21` [Example 147], the IC50 (geometric mean) stood at 400 pM.
